Test results as given in patent publication US9688760B2, “Anti-leukocyte adhesion for the mitigation of potential adverse events caused by CD3-specific binding domains” (AMGEN RESEARCH (MUNICH) GMBH, priority 2013, dated 2017).

Assays:
recombinant human ICAM-1 = experiment: Flow chamber: T cell-rolling on recombinant ICAM-1, semi short-term conditions; type: cell-based; details: freshly isolated T cells, +AMG 103 10 ng/ml, t=45 min; coated at 12.5 μg/ml, with blocking; control −AMG 103 383±144
Experimental: (§1) Recombinant proteins (rhICAM-1 #ADP4-050, rhVCAM-1 #ADP5-050 or rhP-selectin #ADP3-050, R&D Systems) were dissolved in ddH2O according to the manufacturer's instructions. Prior to rolling experiments recombinant proteins were diluted in Dulbecco's PBS with Ca^2+ and Mg^2+ (#L1815, Biochrom) and coated onto a μ-slide VI^0.4 Luer ibiTreat (#80606, ibidi) over night at 4° C. Before usage slides were washed three times with Dulbecco's PBS and blocked where indicated with 20% FBS (#10270, Gibco) in PBS for 2 h at room temperature. Blocking solution was replaced by RPMI 1640 medium (#FG1215, Biochrom) without supplements.
Isolation and characterization of human peripheral blood mononuclear cells (PBMC) and T cells from blood were performed as described in Example 2 (p. 48, 1-31).
(§2) For rolling experiments using freshly isolated T cells, these cells were resuspended in RPMI 1640 medium (#FG1215, Biochrom) without supplements to a final concentration of 1×10^6 cells/ml at the start of the experiment (t=0 min; addition of 10 ng/ml Blinatumomab (AMG 103)) and incubated for 35 min at 37° C. and 5% CO2. Cells were then filled in a perfusion set “white” (#10963, ibidi) which was connected to both a fluidic unit and the μ-slide and image sequences of 45 sec duration were recorded at t=40 min, 45 min, and 50 min as described in Example 2 (p. 50, 18-23). […]

[1] = system: recombinant human P-selectin; experiment: Flow chamber: T cell-rolling on recombinant P-selectin, semi short-term conditions; type: cell-based; details: +AMG 103 10 ng/ml, coated at 20 μg/ml
Experimental: as §1
Isolation and characterization of human peripheral blood mononuclear cells (PBMC) and T cells from blood were performed as described in Example 2 (p. 48, 1-31). […]
as §2

## Blinatumomab: recombinant CD19×CD3 bispecific scFv antibody consisting of four immunoglobulin variable domains assembled into a single polypeptide chain
Recombinant human ICAM-1
  mean T cell-rolling velocity±SD: 314±79 μm/sec
[1]; Jurkat E6.1 T cells, t=45 min, control −AMG 103 500±81
  mean T cell-rolling velocity±SD: 413±104 μm/sec
[1]; freshly isolated T cells, t=50 min, with blocking, control −AMG 103 402±115
  mean T cell-rolling velocity±SD: 293±73 μm/sec
